Measurements taken from patent US11597722B2, “Crystal form D of pyrazine-2(1H)-ketone compound and preparation method therefor” (ZHANGZHOU PIEN TZE HUANG PHARMACEUTICAL CO., LTD., priority 2019, dated 2023).

Experiment: Pharmacokinetics in mice, single gavage
Format: in vivo, CD-1 mouse (male)
Details: CD-1 mouse, 300 mpk, plasma
Procedure: Experimental purpose: To test the pharmacokinetics of the compound in mice
CD-1 mouse (male), vehicle (0.5% (w/v) methylcellulose 0.5% (v/v) Tween 80 aqueous solution), trifluoroacetate of compound 0027.
The vehicle was an aqueous solution of 0.5% (w/v) methylcellulose and 0.5% (v/v) Tween 80, and it was prepared according to the following procedure:
Formulation of preparations for intragastric administration: […]
a. An appropriate amount of the test product was weighed and put into a glass bottle;
b. 70% volume of vehicle (0.5% (w/v) methyl cellulose 0.5% (v/v) Tween 80 aqueous solution) was added;
c. The preparation was stirred until it was visually homogeneous, and subjected to ultrasound in water bath as needed;
e. Make up the remaining volume of 0.5% methylcellulose+0.5% Tween 80, and the mixture was stirred until being visually homogeneous.
Animals in groups 1 and 2 were administrated 5 mg/mL and 30 mg/mL compounds by single gavage, with a dose volume of 10 mL/kg.
The body weight of the animals was weighed before administration, and the administration volume was calculated based on the body weight.
Whole blood samples (30 μL) were collected at the prescribed time (0.25, 0.5, 1, 2, 4, 6, 8, 24 h) through saphenous vein blood collection, and the actual blood collection time was recorded in the test record. […]

COc1cc(OC)c(Cl)c(-c2nc(-c3nc(-c4cn(C)nc4C)cnc3N)cn(C)c2=O)c1
Tlast: 24.0 h
